tested on: GILZ gene; experiment: GILZ gene assay (qPCR, HUT78 / 786-O cells); assay type: cell-based; details: at 10 uM
Description: GILZ gene assays were conducted as follows. HUT78 cells were cultured in IMEM plus 20% heat inactivated FBS and cell density was maintained between 0.1 to 1.2 million/mL. 786-O cells were cultured in RPMI plus 10% heat inactivated FBS. Actively growing cells were harvested and resuspended in HBSS with 2% FBS at 1.1 million cells per mL then dispensed to 384-well V-bottom plates at 45 μL per well. Serially diluted ADC solution was added to the cell plate (5 μL per well) and mixed for 2 min. Cells were then cultured at 37° C., at 5% CO2 for a designated time before supernatant was removed. Cells were harvested in lysis buffer from the Cells-to-Ct kit (40 μL, Life Technologies, 4391851C) following the supplier's protocol and mixed for 10 min followed by addition of 5 μL per well of stop solution from the kit. cDNA was synthesized with a reverse transcription kit (Life Technologies, 4391852C) follow by qPCR using the TaqMan gene expression master mix (Life Technologies, 4369016) with GILZ gene assay (Life Technologies, Hs00608272_m1) and GAPDH assay (Hs2758991_g1) in a duplex format with 3-4 technical replicates.

Compound	GILZ Max
(6-(3-((3aR,4aS,4bS,11aR,11bS,12S,13aS,13bS)-12-hydroxy-13b-(2-hydroxyacetyl)-11a,13a-dimethyl-2-propyl-4,4a,5,6,11,11a,11b,12,13,13a-decahydro-[1,3]dioxolo[4″,5″:3′,4′]cyclopenta[1′,2′:5,6]naphtho[,2-f]indazol-8(3aH,4bH,13bH)-yl)phenoxy)hexyl)phosphonic acid [Compound 27]	80% (at

same assay, conditions: read-out: GILZ EC50

Compound	EC50 [nM]
C[C@@H]1C[C@H]2[C@@H]3C[C@H](F)C4=CC(=O)C=C[C@]4(C)[C@@]3(F)[C@@H](O)C[C@]2(C)[C@@]1(OC(=O)CCCCCP(=O)(O)O)C(=O)SCF [Compound 19, (6-(((6S,8S,9R,10S,11S,13S,14S,16R,17R)-6,9-difluoro-17-(((fluoromethyl)thio)carbonyl)-11-hydroxy-10,13,16-trimethyl-3-oxo-6,7,8,9,10,11,12,13,14,15,16,17-dodecahydro-3H-cyclopenta[a]phenanthren-17-yl)oxy)-6-oxohexyl)phosphonic acid]	1290
(6-(3-((3aR,4aS,4bS,11aR,11bS,12S,13aS,13bS)-12-hydroxy-13b-(2-hydroxyacetyl)-11a,13a-dimethyl-2-propyl-4,4a,5,6,11,11a,11b,12,13,13a-decahydro-[1,3]dioxolo[4″,5″:3′,4′]cyclopenta[1′,2′:5,6]naphtho[,2-f]indazol-8(3aH,4bH,13bH)-yl)phenoxy)hexyl)phosphonic acid [Compound 27]	2760

tested on: MDCKII cells; experiment: Apparent permeability in MDCKII cells; assay type: in vitro ADME; details: Papp, average of A to B and B to A, 1 μM test compound, t=3 hr
Description: Determination of apparent permeability was as follows. MDCKII cells (kindly provided by the Netherlands Cancer Institute, under a licensing agreement) were seeded on to 96-well transwell culture plates (Millipore Corp, Billerica, Mass.) and used in experiments after five days in culture. […] Substrate solution (150 μL) was added to either the apical (A) or the basolateral (B) compartment of the culture plate, and buffer (150 μL; HBSS, 10 mM HEPES, pH 7.4) with 10 μM cyclosporine A was added to the compartment opposite to that containing the substrate. At t=3 hr, 50 μL samples were removed from both sides of monolayers dosed with test compound and placed in 96 well plates, 50 μL internal standard (1 μM labetolol) and 100 μL HBSS was added to the samples. Samples were analyzed by LC/MS/MS using an Applied Biosystems SCIEX API 5000 triple quadruple mass spectrometer (Concord, ON, Canada) with a TurboIonSpray ion source in the positive ion mode. A Thermo Scientific Transcend LX-2 system (Franklin, Mass.) was coupled to the API 5000 with a flow rate of 800 μL/min to direct sample into the mass spectrometer.
Papp was expressed as 10-6 cm/s.

Compound	MDCK Permeability (cm × 10-6/sec)
CCCC1O[C@@H]2C[C@H]3[C@@H]4CCC5=Cc6c(cnn6-c6ccc(OCCCCCCP(=O)(O)O)cc6)C[C@]5(C)[C@H]4[C@@H](O)C[C@]3(C)[C@]2(C(=O)CO)O1 (stereo partly shown) [Compound 31]	4.1
CCCC1O[C@@H]2C[C@H]3[C@@H]4CCC5=Cc6c(cnn6-c6cccc(OCCCCP(=O)(O)O)c6)C[C@]5(C)[C@H]4[C@@H](O)C[C@]3(C)[C@]2(C(=O)CO)O1 (stereo partly shown) [Compound 28]	1.6
CCC(=O)O[C@]1(C(=O)SCCCCCCP(=O)(O)O)[C@H](C)C[C@H]2[C@@H]3C[C@H](F)C4=CC(=O)C=C[C@]4(C)[C@@]3(F)[C@@H](O)C[C@@]21C [Compound 7]	2
C[C@@H]1C[C@H]2[C@@H]3C[C@H](F)C4=CC(=O)C=C[C@]4(C)[C@@]3(F)[C@@H](O)C[C@]2(C)[C@@]1(O)C(=O)SCCCCCCCCCCP(=O)(O)O [Compound 8]	2.8
CCCC1O[C@@H]2C[C@H]3[C@@H]4CCC5=Cc6c(cnn6-c6ccc(OCCCCP(=O)(O)O)cc6)C[C@]5(C)[C@H]4[C@@H](O)C[C@]3(C)[C@]2(C(=O)CO)O1 (stereo partly shown) [Compound 30]	1.9
C[C@@H]1C[C@H]2[C@@H]3C[C@H](F)C4=CC(=O)C=C[C@]4(C)[C@@]3(F)[C@@H](O)C[C@]2(C)[C@@]1(O)C(=O)SCCCCCCP(=O)(O)O [Compound 10]	1.9
CCC(=O)O[C@]1(C(=O)SCF)[C@H](C)C[C@H]2[C@@H]3C[C@H](F)C4=CC(=O)C=C[C@]4(C)[C@@]3(F)[C@@H](O)C[C@@]21C [Fluticasone Propionate, reference compound]	21.5
CCC(=O)O[C@]1(C(=O)SCCCCP(=O)(O)O)[C@H](C)C[C@H]2[C@@H]3C[C@H](F)C4=CC(=O)C=C[C@]4(C)[C@@]3(F)[C@@H](O)C[C@@]21C [Compound 4]	1.72
C[C@@H]1C[C@H]2[C@@H]3C[C@H](F)C4=CC(=O)C=C[C@]4(C)[C@@]3(F)[C@@H](O)C[C@]2(C)[C@@]1(OC(=O)CCCCCCCCP(=O)(O)O)C(=O)SCF [Compound 18, (9-(((6S,8S,9R,10S,11S,13S,14S,16R,17R)-6,9-difluoro-17-(((fluoromethyl)thio)carbonyl)-11-hydroxy-10,13,16-trimethyl-3-oxo-6,7,8,9,10,11,12,13,14,15,16,17-dodecahydro-3H-cyclopenta[a]phenanthren-17-yl)oxy)-9-oxononyl)phosphonic acid]	<0.9
C[C@@H]1C[C@H]2[C@@H]3C[C@H](F)C4=CC(=O)C=C[C@]4(C)[C@@]3(F)[C@@H](O)C[C@]2(C)[C@@]1(O)C(=O)SCCCCP(=O)(O)O [Compound 5]	1.84
CCCC1O[C@@H]2C[C@H]3[C@@H]4CCC5=CC(=O)C=C[C@]5(C)[C@H]4[C@@H](O)C[C@]3(C)[C@]2(C(=O)CO)O1 (stereo partly shown) [Budesonide, reference compound]	31.6
CCC(=O)O[C@]1(C(=O)SCCCCCCCCCCP(=O)(O)O)[C@H](C)C[C@H]2[C@@H]3C[C@H](F)C4=CC(=O)C=C[C@]4(C)[C@@]3(F)[C@@H](O)C[C@@]21C [Compound 3, (10-(((6S,8S,9R,10S,11S,13S,14S,16R,17R)-6,9-difluoro-11-hydroxy-10,13,16-trimethyl-3-oxo-17-(propionyloxy)-6,7,8,9,10,11,12,13,14,15,16,17-dodecahydro-3H-cyclopenta[a]phenanthrene-17-carbonyl)thio)decyl)phosphonic acid]	1.04

biological target: GR full length protein (glucocorticoid receptor) (Homo sapiens (Human), UniProt P04150); experiment: PolarScreen Glucocorticoid Receptor Competitor Assay (GR binding); details: fluorescence polarisation competitor assay, 2-4 hours at room temperature; read-out: GR Bind IC50
Sequence (P04150 whole entry): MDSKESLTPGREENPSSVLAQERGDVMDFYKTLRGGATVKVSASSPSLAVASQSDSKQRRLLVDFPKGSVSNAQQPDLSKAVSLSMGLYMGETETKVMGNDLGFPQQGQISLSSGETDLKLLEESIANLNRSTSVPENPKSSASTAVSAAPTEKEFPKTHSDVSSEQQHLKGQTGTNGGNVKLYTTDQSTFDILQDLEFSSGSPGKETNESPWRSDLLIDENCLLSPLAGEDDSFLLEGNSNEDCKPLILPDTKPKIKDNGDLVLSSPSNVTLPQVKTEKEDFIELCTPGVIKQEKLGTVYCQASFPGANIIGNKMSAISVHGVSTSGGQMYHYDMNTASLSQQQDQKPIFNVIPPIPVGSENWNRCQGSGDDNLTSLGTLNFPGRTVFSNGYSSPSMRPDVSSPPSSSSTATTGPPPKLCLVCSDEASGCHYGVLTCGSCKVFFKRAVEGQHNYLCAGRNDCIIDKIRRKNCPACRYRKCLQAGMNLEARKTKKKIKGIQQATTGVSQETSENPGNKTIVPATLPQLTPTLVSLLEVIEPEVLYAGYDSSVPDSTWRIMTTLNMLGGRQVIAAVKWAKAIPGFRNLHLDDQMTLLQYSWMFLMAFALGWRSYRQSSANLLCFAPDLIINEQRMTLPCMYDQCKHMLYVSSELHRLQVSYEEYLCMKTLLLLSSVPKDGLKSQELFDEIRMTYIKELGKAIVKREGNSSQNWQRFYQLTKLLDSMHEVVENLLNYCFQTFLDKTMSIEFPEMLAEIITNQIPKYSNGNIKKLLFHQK
Description: The potency of binding to gucocorticoid receptor by small molecule compounds was measured with the PolarScreen™ Glucocorticoid Receptor Competitor Assay Kit, Red (Life Technology, Catalog #A15898) according to the procedure in the kit. In brief, after compounds were diluted and transferred into assay plates, the fluormone GS red and GR full length protein were subsequently added into the assay plates, along with the positive and negative controls. The samples were mixed on a shaker for 1 minute and then the plates were incubated at room temperature for 2-4 hours with minimal light exposure. The plates were read with an Envision and the relative fluorescent signals were calculated. The data were plotted in GraphPad Prism and the EC50 values were calculated with non-linear regression curve fit of the data in GraphPad Prism.

Compound	IC50 [nM]
C[C@@H]1C[C@H]2[C@@H]3C[C@H](F)C4=CC(=O)C=C[C@]4(C)[C@@]3(F)[C@@H](O)C[C@]2(C)[C@@]1(OC(=O)CCCCCP(=O)(O)O)C(=O)SCF [Compound 19, (6-(((6S,8S,9R,10S,11S,13S,14S,16R,17R)-6,9-difluoro-17-(((fluoromethyl)thio)carbonyl)-11-hydroxy-10,13,16-trimethyl-3-oxo-6,7,8,9,10,11,12,13,14,15,16,17-dodecahydro-3H-cyclopenta[a]phenanthren-17-yl)oxy)-6-oxohexyl)phosphonic acid]	0.14

From patent US11554172B2, “Phosphonate linkers and their use to facilitate cellular retention of compounds” (priority 2016, dated 2023)
